Experimental data as given in PubChem BioAssay (NCI).
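Results reflect a 48-hour exposure of cells in 96-well plates to compound at five concentrations. Definition used: TGI = concentration required for complete inhibition of growth.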 *1 amine or outer side, *2 acyl side, *3 side chain or, on linkers, in order; H or OH if unused. Where a SMILES comes first, the peptide text is derived from it. Bridges are numbered along the chain shown (N, C = ends). [ ]: non-standard residue; d: D form. X59 = COc1c(N[*:1])cccc1C(=O)O[C@H](C(=O)[C@H](C)C(=O)[*:2])C(C)C; X58 = CC(C)C[C@H](C(=O)[*:2])C(C)C(=O)C1CCCN1[*:1]; NMeY = CN[C@@H](Cc1ccc(O)cc1)C(=O)O; Lac = C[C@H](O)C(=O)O

Assays:
Test in all cases: DTP human tumour cell line panel, 48 h
SNB-75 CNS = tested on: SNB-75 CNS
OVCAR-5 ovarian = tested on: OVCAR-5 ovarian
MDA-N = tested on: MDA-N
T-47D breast = tested on: T-47D breast
SNB-19 CNS = tested on: SNB-19 CNS
786-0 renal = tested on: 786-0 renal
SF-539 CNS = tested on: SF-539 CNS
MDA-MB-435 = tested on: MDA-MB-435
RPMI-8226 leukemia = tested on: RPMI-8226 leukemia
HL-60(TB) leukemia = tested on: HL-60(TB) leukemia
NCI-H460 lung = tested on: NCI-H460 lung
SK-MEL-5 melanoma = tested on: SK-MEL-5 melanoma
OVCAR-3 ovarian = tested on: OVCAR-3 ovarian
UO-31 renal = tested on: UO-31 renal
MALME-3M melanoma = tested on: MALME-3M melanoma
NCI-H226 lung = tested on: NCI-H226 lung
M14 melanoma = tested on: M14 melanoma
MDA-MB-231 breast = tested on: MDA-MB-231 breast
CAKI-1 renal = tested on: CAKI-1 renal
LOX IMVI melanoma = tested on: LOX IMVI melanoma
A549 NSCLC = tested on: A549 NSCLC
SR leukemia = tested on: SR leukemia
HCT-15 colon = tested on: HCT-15 colon
TK-10 renal = tested on: TK-10 renal
HS 578T breast = tested on: HS 578T breast
CCRF-CEM leukemia = tested on: CCRF-CEM leukemia
IGROV1 ovarian = tested on: IGROV1 ovarian
MOLT-4 leukemia = tested on: MOLT-4 leukemia
K-562 leukemia = tested on: K-562 leukemia
UACC-257 melanoma = tested on: UACC-257 melanoma
RXF 393 renal = tested on: RXF 393 renal
SN12C renal = tested on: SN12C renal
SF-268 CNS = tested on: SF-268 CNS
PC-3 prostate = tested on: PC-3 prostate
COLO 205 colon = tested on: COLO 205 colon
HT29 colon = tested on: HT29 colon
OVCAR-4 ovarian = tested on: OVCAR-4 ovarian
A498 renal = tested on: A498 renal
SK-MEL-28 melanoma = tested on: SK-MEL-28 melanoma
NCI/ADR-RES ovarian = tested on: NCI/ADR-RES ovarian
ACHN renal = tested on: ACHN renal
NCI-H23 lung = tested on: NCI-H23 lung
KM12 colon = tested on: KM12 colon
SW-620 colon = tested on: SW-620 colon
OVCAR-8 ovarian = tested on: OVCAR-8 ovarian
DU-145 prostate = tested on: DU-145 prostate
HOP-62 NSCLC = tested on: HOP-62 NSCLC
NCI-H522 lung = tested on: NCI-H522 lung
MCF7 breast = tested on: MCF7 breast
HCT-116 colon = tested on: HCT-116 colon
EKVX NSCLC = tested on: EKVX NSCLC
HCC-2998 colon = tested on: HCC-2998 colon
SF-295 CNS = tested on: SF-295 CNS
UACC-62 melanoma = tested on: UACC-62 melanoma
SK-MEL-2 melanoma = tested on: SK-MEL-2 melanoma
HOP-92 NSCLC = tested on: HOP-92 NSCLC
SK-OV-3 ovarian = tested on: SK-OV-3 ovarian
BT-549 breast = tested on: BT-549 breast
U251 CNS = tested on: U251 CNS

CNc1cccc2c1C(C)C[C@]1(C)C(=O)Nc3ccccc3[C@H]21 (stereo partly drawn)
TGI (SNB-75 CNS): 28.3 µM | TGI (OVCAR-5 ovarian): > 100 µM | TGI (MDA-N): 69.9 µM | TGI (T-47D breast): > 100 µM | TGI (SNB-19 CNS): 54 µM | TGI (786-0 renal): 32.9 µM | TGI (SF-539 CNS): > 100 µM | TGI (MDA-MB-435): 53.4 µM | TGI (RPMI-8226 leukemia): > 100 µM | TGI (HL-60(TB) leukemia): > 100 µM | TGI (NCI-H460 lung): 41.1 µM | TGI (SK-MEL-5 melanoma): > 100 µM | TGI (OVCAR-3 ovarian): 34.6 µM | TGI (UO-31 renal): 52.4 µM | TGI (MALME-3M melanoma): 47.7 µM | TGI (NCI-H226 lung): 61.4 µM | TGI (M14 melanoma): 41.5 µM | TGI (MDA-MB-231 breast): 42.9 µM | TGI (CAKI-1 renal): 63.7 µM | TGI (LOX IMVI melanoma): 33.7 µM | TGI (A549 NSCLC): 38.6 µM | TGI (SR leukemia): 43.3 µM | TGI (HCT-15 colon): > 100 µM | TGI (TK-10 renal): 37.2 µM | TGI (HS 578T breast): 53.6 µM | TGI (CCRF-CEM leukemia): > 100 µM | TGI (IGROV1 ovarian): > 100 µM | TGI (MOLT-4 leukemia): > 100 µM | TGI (K-562 leukemia): > 100 µM | TGI (UACC-257 melanoma): 39.3 µM | TGI (RXF 393 renal): 50 µM | TGI (SN12C renal): 48.5 µM | TGI (SF-268 CNS): > 100 µM | TGI (PC-3 prostate): 74.5 µM | TGI (COLO 205 colon): > 100 µM | TGI (HT29 colon): 81.6 µM | TGI (OVCAR-4 ovarian): 35.9 µM | TGI (A498 renal): 43.6 µM | TGI (SK-MEL-28 melanoma): 91.8 µM | TGI (NCI/ADR-RES ovarian): 45.4 µM | TGI (ACHN renal): 50.8 µM | TGI (NCI-H23 lung): > 100 µM | TGI (KM12 colon): 87.1 µM | TGI (SW-620 colon): > 100 µM | TGI (OVCAR-8 ovarian): 39.1 µM | TGI (DU-145 prostate): > 100 µM | TGI (HOP-62 NSCLC): 36.4 µM | TGI (NCI-H522 lung): 89 µM | TGI (MCF7 breast): 47.4 µM | TGI (HCT-116 colon): 34.8 µM | TGI (EKVX NSCLC): > 100 µM | TGI (HCC-2998 colon): > 100 µM | TGI (SF-295 CNS): 34.2 µM | TGI (UACC-62 melanoma): > 100 µM | TGI (SK-MEL-2 melanoma): 55.3 µM

COc1ccc(C[C@H]2C(=O)O[C@H](C)[C@H](NC(=O)[C@@H](CC(C)C)C(C)C(=O)C3CCCN3C(=O)[C@H](C)O)C(=O)Nc3cccc(c3OC)C(=O)O[C@@H](C(C)C)C(=O)[C@H](C)C(=O)N[C@@H](CC(C)C)C(=O)N3CCC[C@H]3C(=O)N2C)cc1 (stereo partly drawn) (H-[Lac][X58]T[X59]LP[NMeY](Me); ester 3-C)
TGI (SNB-75 CNS): > 12.5 µM | TGI (OVCAR-5 ovarian): > 12.5 µM | TGI (MDA-N): > 12.5 µM | TGI (T-47D breast): > 12.5 µM | TGI (SNB-19 CNS): > 12.5 µM | TGI (786-0 renal): > 12.5 µM | TGI (SF-539 CNS): > 12.5 µM | TGI (MDA-MB-435): > 12.5 µM | TGI (RPMI-8226 leukemia): 10.8 µM | TGI (HOP-92 NSCLC): > 12.5 µM | TGI (NCI-H460 lung): > 12.5 µM | TGI (SK-MEL-5 melanoma): > 12.5 µM | TGI (OVCAR-3 ovarian): > 12.5 µM | TGI (UO-31 renal): > 12.5 µM | TGI (MALME-3M melanoma): > 12.5 µM | TGI (SK-OV-3 ovarian): > 12.5 µM | TGI (NCI-H226 lung): > 12.5 µM | TGI (M14 melanoma): > 12.5 µM | TGI (MDA-MB-231 breast): > 12.5 µM | TGI (CAKI-1 renal): > 12.5 µM | TGI (LOX IMVI melanoma): > 12.5 µM | TGI (A549 NSCLC): > 12.5 µM | TGI (SR leukemia): > 12.5 µM | TGI (HCT-15 colon): > 12.5 µM | TGI (TK-10 renal): > 12.5 µM | TGI (HS 578T breast): > 12.5 µM | TGI (BT-549 breast): > 12.5 µM | TGI (IGROV1 ovarian): > 12.5 µM | TGI (MOLT-4 leukemia): > 12.5 µM | TGI (K-562 leukemia): > 12.5 µM | TGI (UACC-257 melanoma): > 12.5 µM | TGI (RXF 393 renal): > 12.5 µM | TGI (SN12C renal): > 12.5 µM | TGI (SF-268 CNS): > 12.5 µM | TGI (PC-3 prostate): > 12.5 µM | TGI (COLO 205 colon): > 12.5 µM | TGI (HT29 colon): > 12.5 µM | TGI (OVCAR-4 ovarian): > 12.5 µM | TGI (SK-MEL-28 melanoma): > 12.5 µM | TGI (NCI/ADR-RES ovarian): > 12.5 µM | TGI (ACHN renal): > 12.5 µM | TGI (NCI-H23 lung): > 12.5 µM | TGI (KM12 colon): > 12.5 µM | TGI (SW-620 colon): > 12.5 µM | TGI (OVCAR-8 ovarian): > 12.5 µM | TGI (U251 CNS): > 12.5 µM | TGI (DU-145 prostate): > 12.5 µM | TGI (HOP-62 NSCLC): > 12.5 µM | TGI (NCI-H522 lung): > 12.5 µM | TGI (MCF7 breast): > 12.5 µM | TGI (HCT-116 colon): > 12.5 µM | TGI (EKVX NSCLC): > 12.5 µM | TGI (HCC-2998 colon): > 12.5 µM | TGI (SF-295 CNS): > 12.5 µM | TGI (UACC-62 melanoma): > 12.5 µM | TGI (SK-MEL-2 melanoma): > 12.5 µM

Nc1ccc(S(=O)(=O)NCCS(=O)(=O)O)cc1
TGI (SNB-75 CNS): > 100 µM | TGI (OVCAR-5 ovarian): > 100 µM | TGI (MDA-N): > 100 µM | TGI (SNB-19 CNS): > 100 µM | TGI (786-0 renal): > 100 µM | TGI (MDA-MB-435): > 100 µM | TGI (HL-60(TB) leukemia): > 100 µM | TGI (HOP-92 NSCLC): > 100 µM | TGI (NCI-H460 lung): > 100 µM | TGI (SK-MEL-5 melanoma): > 100 µM | TGI (OVCAR-3 ovarian): > 100 µM | TGI (UO-31 renal): > 100 µM | TGI (MALME-3M melanoma): > 100 µM | TGI (NCI-H226 lung): > 100 µM | TGI (M14 melanoma): > 100 µM | TGI (MDA-MB-231 breast): > 100 µM | TGI (CAKI-1 renal): > 100 µM | TGI (LOX IMVI melanoma): > 100 µM | TGI (A549 NSCLC): > 100 µM | TGI (SR leukemia): > 100 µM | TGI (HCT-15 colon): > 100 µM | TGI (TK-10 renal): > 100 µM | TGI (HS 578T breast): > 100 µM | TGI (CCRF-CEM leukemia): > 100 µM | TGI (BT-549 breast): > 100 µM | TGI (IGROV1 ovarian): > 100 µM | TGI (MOLT-4 leukemia): > 100 µM | TGI (K-562 leukemia): > 100 µM | TGI (UACC-257 melanoma): > 100 µM | TGI (RXF 393 renal): > 100 µM | TGI (SN12C renal): > 100 µM | TGI (SF-268 CNS): > 100 µM | TGI (PC-3 prostate): > 100 µM | TGI (HT29 colon): > 100 µM | TGI (OVCAR-4 ovarian): > 100 µM | TGI (A498 renal): > 100 µM | TGI (SK-MEL-28 melanoma): > 100 µM | TGI (NCI/ADR-RES ovarian): > 100 µM | TGI (ACHN renal): > 100 µM | TGI (NCI-H23 lung): > 100 µM | TGI (KM12 colon): > 100 µM | TGI (SW-620 colon): > 100 µM | TGI (OVCAR-8 ovarian): > 100 µM | TGI (U251 CNS): > 100 µM | TGI (DU-145 prostate): > 100 µM | TGI (HOP-62 NSCLC): > 100 µM | TGI (NCI-H522 lung): > 100 µM | TGI (HCT-116 colon): > 100 µM | TGI (EKVX NSCLC): > 100 µM | TGI (SF-295 CNS): > 100 µM | TGI (UACC-62 melanoma): > 100 µM | TGI (SK-MEL-2 melanoma): > 100 µM
